Where two headings read alike, the source gives them in different places.
What was measured:
[1] = target: T1, Human Polymorphonuclear Leukocyte Elastase (Homo sapiens, UniProt P08246); experiment: Inhibition of human polymorphonuclear leukocyte elastase via hydrolysis of Boc-AAPAN or Boc-AAPVN; type: biochemical; conditions: second order rate constant for inactivation of the enzyme, read-out: Kobs /[I]
T1 sequence (P08246 30-267): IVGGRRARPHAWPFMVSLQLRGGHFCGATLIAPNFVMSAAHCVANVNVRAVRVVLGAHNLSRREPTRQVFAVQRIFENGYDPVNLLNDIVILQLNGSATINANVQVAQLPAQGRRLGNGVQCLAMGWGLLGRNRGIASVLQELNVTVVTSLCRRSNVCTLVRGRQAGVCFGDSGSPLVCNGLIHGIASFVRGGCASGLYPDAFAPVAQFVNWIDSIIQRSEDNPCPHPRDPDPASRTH
Summary of the method: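 Crude human PMN extract was added to 0.2 mM Boc-AAPAN or Boc-AAPVN substrate solution in 0.05 M TES pH 7.5 containing inhibitor in DMSO; extract volume was adjusted per batch activity. Hydrolysis was followed as ΔOD/min at 410 mμ, after a pre-check for spontaneous hydrolysis. Values are ID50 (μg/ml, 50% inhibition at 2 min), Ki (μM) or kobs/I.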

[2] = target: T2, HUMAN PROTEINASE 3 (Homo sapiens, UniProt P24158); experiment: Inhibition of PR3 catalyzed hydrolysis of MeO-Succ-AAPV-pNA; type: biochemical; conditions: Table IV; 45 mM TES pH 7.5, 450 mM NaCl, 10% DMSO; 0.2 mM MeO-succ-AAPV-pNA; read-out: SORC (second order rate constant, kobs /I)
T2 sequence (P24158 28-256): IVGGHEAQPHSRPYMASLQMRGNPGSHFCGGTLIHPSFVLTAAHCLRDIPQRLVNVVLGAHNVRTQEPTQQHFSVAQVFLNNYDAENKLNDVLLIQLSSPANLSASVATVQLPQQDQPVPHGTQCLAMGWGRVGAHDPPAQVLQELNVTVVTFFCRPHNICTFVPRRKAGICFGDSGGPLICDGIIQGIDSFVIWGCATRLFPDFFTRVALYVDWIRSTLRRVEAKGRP
Procedure: The PR3 catalyzed hydrolysis of MeO-Succ-AAPV-pNA was measured in a spectrophotometer monitoring absorbance at 410 nm. The enzymatic activity was determined in 45 mM TES at pH 7.5, 450 mM NaCl and 10% DMSO. The data were fit by non-linear regression to equation 1 to obtain the initial rates. The nonlinear progress curves observed with time dependent inhibitors were fit to equation 2 to obtain the first order rate constant Kobs. Results were expressed as kobs /I which is the second order rate constant (SORC) in per mole per second for inactivation of the enzyme.
Y=vs *x+[(vo -vs) (1-e^(-K.spsb.o^*x))/Ko
Kinetic constants for the inhibition of PR3 catalyzed hydrolysis of 0.2 mM MeO-succ-AAPV-pNA were determined by varying the concentration of inhibitor present in the reaction vessel.

| SMILES | kinact/KI ([1]; pH 7.5, Table I) [M⁻¹ s⁻¹] | further results |
| --- | --- | --- |
| CCC[C@@H](NC(=O)N1C(=O)C(CC)(CC)[C@@H]1Oc1ccc(C(C)N(C)CCOC)cc1)c1ccc2c(c1)OCO2 (stereo partly shown) | – | kinact/KI ([1]; pH 7.5, Table III): 1.3e+06 M⁻¹ s⁻¹; kinact/KI [2]: 31000 M⁻¹ s⁻¹ |
| CCC[C@@H](NC(=O)N1C(=O)C(CC)(CC)[C@@H]1Oc1ccc(CCCCN(C)C)cc1)c1ccc(C)cc1 [R4=Me; R5=Me; n=4] | – | kinact/KI ([1]; pH 7.5, Table II): 525000 M⁻¹ s⁻¹ |
| CCC[C@@H](NC(=O)N1C(=O)C(CC)(CC)[C@@H]1Oc1ccc(CN(CC)CCOC)cc1)c1ccc(OC)cc1 | – | kinact/KI ([1]; pH 7.5, Table III): 1e+06 M⁻¹ s⁻¹ |
| CCC[C@@H](NC(=O)N1C(=O)C(CC)(CC)[C@@H]1Oc1ccc(CNC(=O)Cc2c[nH]cn2)cc1)c1ccc(C)cc1 [R4=H; R5=COCH2-4-imidazolyl; R6=H, (4S)-3,3-Diethyl-1-[(R)-α-(n-propyl)-4-(methyl)benzylaminocarbonyl]-4-[(4-((4-imidazolyl)methylcarbonyl)aminomethyl)phenoxy]azetidin-2-one] | 850000 | – |
| CCC[C@@H](NC(=O)N1C(=O)C(CC)(CC)[C@@H]1Oc1ccc(CN(C)CCOC(=O)N(C)C)cc1)c1ccc(C)cc1 [R4=Me; R5=CH2 CH2 OCONMe2; R6=H, (4S)-3,3-Diethyl-1-[(R)-α-n-propyl-(4-methyl)benzylaminocarbonyl]-4-[(4-((2-dimethylaminocarbonyloxy)ethyl)methylaminomethyl)phenoxy]azetidin-2-one] | 610000 | – |
| CCC[C@@H](NC(=O)N1C(=O)C(CC)(CC)[C@@H]1Oc1ccc(CN(C)CCCOC(=O)N(C)C)cc1)c1ccc(C)cc1 [R4=Me; R5=CH2 CH2 CH2 OCONMe2; R6=H] | 2.1e+06 | – |
| CCC[C@@H](NC(=O)N1C(=O)C(CC)(CC)[C@@H]1Oc1ccc(CN(CC)CCSC)cc1)c1ccc(C)cc1 [R4=Et; R5=CH2 CH2 SMe; R6=H] | 690000 | – |
| CCC[C@@H](NC(=O)N1C(=O)C(CC)(CC)[C@@H]1Oc1ccc(C(COC)N(CCC)CCC)cc1)c1ccc(C)cc1 (stereo partly drawn) [R4=n-Pr; R5=n-Pr; R6=CH2 OMe, 3,3-Diethyl-1-[(R)-α-(n-propyl)-4-(methyl)benzylaminocarbonyl]-4-(S)-[4-{1-(RS)-(di-n-propyl)-2-methoxyethyl}phenoxy]azetidin-2-one] | 1e+06 | – |
| CCC[C@@H](NC(=O)N1C(=O)C(CC)(CC)[C@@H]1Oc1ccc(C(COC)N(C)CCC)cc1)c1ccc2c(c1)OCO2 (mixture of isomers) [3,3-Diethyl-1-[(R)-α-(n-propyl)-(3,4-dioxomethylene)benzylaminocarbonyl]-4-(S)-[4-{1-(RS)-(N-(n-propyl)-N-(methyl)amino)-2-methoxyethyl}phenoxy]azetidin-2-one] | – | kinact/KI ([1]; pH 7.5, Table III): 1.8e+06 M⁻¹ s⁻¹ |
| CCC[C@@H](NC(=O)N1C(=O)C(CC)(CC)[C@@H]1Oc1ccc(C(COC)N(C)CC)cc1)c1ccc(C)cc1 (mixture of isomers) [R4=Me; R5=Et; R6=CH2 OMe, 3,3-Diethyl-1-[(R)-α-(n-propyl)-4-(methyl)benzylaminocarbonyl]-4-(S)-[4-{1-(RS)-(N-ethyl-N-(methyl)amino)2-methoxyethyl}-phenoxy]azetidin-2-one] | 1e+06 | – |
| CCC[C@@H](NC(=O)N1C(=O)C(CC)(CC)[C@@H]1Oc1ccc(CN(C)CCOC)cc1)c1ccc(OCC)cc1 | – | kinact/KI ([1]; pH 7.5, Table III): 1.3e+06 M⁻¹ s⁻¹ |
| CCC[C@@H](NC(=O)N1C(=O)C(CC)(CC)[C@@H]1Oc1ccc(CN(CCOC)CCOC)c(Cl)c1)c1ccc(C)cc1 | – | kinact/KI ([1]; pH 7.5, Table III): 1e+06 M⁻¹ s⁻¹ |
| CCC[C@@H](NC(=O)N1C(=O)C(CC)(CC)[C@@H]1Oc1ccc(CN(CC)C(C)COC)cc1)c1ccc(C)cc1 (stereo partly shown) [R4=Et; R5=CH(Me)CH2 OMe; R6=H] | 670000 | – |
| CCC[C@@H](NC(=O)N1C(=O)C(CC)(CC)[C@@H]1Oc1ccc(CN(C)CCOC)c(C)c1)c1ccc(C)cc1 | – | kinact/KI ([1]; pH 7.5, Table III): 540000 M⁻¹ s⁻¹ |

Now from value to compound, other results behind:

| kinact/KI ([1]; pH 7.5, Table I) [M⁻¹ s⁻¹] | SMILES | further results |
| --- | --- | --- |
| 440000 | CCC[C@@H](NC(=O)N1C(=O)C(CC)(CC)[C@@H]1Oc1ccc(CN(C)CCOC)cc1)c1ccc(C)cc1 [R4=Me; R5=CH2 CH2 OMe; R6=H, (4S)-3,3-Diethyl-1-[(R)-α-n-propyl-(4-methyl)benzylaminocarbonyl]-4-[(4-(2-methoxyethyl)methylaminomethyl)phenoxyl]azetidin-2-one] | – |
| 1.2e+06 | CCCNC(=O)NCc1ccc(O[C@@H]2N(C(=O)N[C@H](CCC)c3ccc(C)cc3)C(=O)C2(CC)CC)cc1 [R4=H; R5=CONHnPr; R6=H, (4S)-3,3-Diethyl-1-[(R)-α-(n-propyl)-4-(methyl)benzylaminocarbonyl]-4-[(4-((N-propyl)aminocarbonyl)aminomethyl)phenoxy]azetidin-2-one] | – |
| 870000 | CCC[C@@H](NC(=O)N1C(=O)C(CC)(CC)[C@@H]1Oc1ccc(CN(C)CCC(=O)N(C)C)cc1)c1ccc(C)cc1 [R4=Me; R5=CH2 CH2 CONMe2; R6=H] | – |
| 725000 | CCC[C@@H](NC(=O)N1C(=O)C(CC)(CC)[C@@H]1Oc1ccc(CN2CCC[C@@H]2CO)cc1)c1ccc(C)cc1 | – |
| 1.6e+06 | CCC[C@@H](NC(=O)N1C(=O)C(CC)(CC)[C@@H]1Oc1ccc(CN2CCN(C(=O)C(C)C)CC2)cc1)c1ccc(C)cc1 | – |
| 730000 | CCC[C@@H](NC(=O)N1C(=O)C(CC)(CC)[C@@H]1Oc1ccc(CN2CCN(C(=O)OC)CC2)cc1)c1ccc(C)cc1 | – |
| 960000 | CCC[C@@H](NC(=O)N1C(=O)C(CC)(CC)[C@@H]1Oc1ccc(C(C)N2CCC[C@H]2COC)cc1)c1ccc(C)cc1 (single isomer, unassigned) [R4+R5=--CH2 CH2 CH2 CH(S--CH2 OMe)--; R6=Me (isomer A)] | – |

Reference: US5952321A, “Substituted azetidinones as anti-inflammatory and antidegenerative agents” (Merck & Co., Inc., priority 1996, dated 1999)
